Patent publication US11939295B1, “6-(3-hydroxyphenyl)-2-methoxy-4-(3-methylphenyl)nicotinonitrile as an antimicrobial compound” (KING FAISAL UNIVERSITY, priority 2023, dated 2024)

How the values were obtained:
Format in all cases: cell-based
Settings in all cases: after 10, 20, 40 and 60 minutes at all dilutions 1:100, 1:200, 1:400, 1:800
Staphylococcus aureus = assay: Antimicrobial testing by agar dilution, Staphylococcus aureus
Description: (§1) The antimicrobial properties of the 6-(3-hydroxyphenyl)-2-methoxy-4-(3-methylphenyl)nicotinonitrile (4) were studied by the method of agar dilution. Test solutions of each compound were prepared in concentration of 1% using dimethylformamide as a solvent then they are diluted in physiological solution to obtain the final experimental dilutions 1:100, 1:200, 1:400, 1:800. The effect of these substances were compared with furacillin in a controllable study. The testing microbes used were gram positive bacteria Staphylococcus aureus, gram negative bacteria Escherichia coli, Pseudomonas aeruginosa and Candida albicans fungi were taken. The experiments used for this survey were meat-pentonlu agar (EPA) for cultivation of bacteria and Saburo environment for fungi. Each experiment used 1 ml of test solution on each plate 500 min. Add 2 drops of emulsified with microbes feel. All experimental samples were taken from the agar after 10, 20, 40, 60 minutes in the environment on the basis of Patrk planted. Bacteria were cultivated at a temperature of 37° C. for 1 day and the mushroom was kept in a thermostat for 2 hours at a temperature of 28° C. in the. Then results were checked.

Escherichia coli = assay: Antimicrobial testing by agar dilution, Escherichia coli
Description: as §1

Pseudomonas aeruginosa = assay: Antimicrobial testing by agar dilution, Pseudomonas aeruginosa
Description: as §1

Candida albicans = assay: Antimicrobial testing by agar dilution, Candida albicans
Description: as §1

Measured: inhibition activity

COc1nc(-c2cccc(O)c2)cc(-c2cccc(C)c2)c1C#N [6-(3-hydroxyphenyl)-2-methoxy-4-(3-methylphenyl)nicotinonitrile]
highest inhibition activity: all assays above
